What was measured:
HEK cells = assay: Internalization of peptides on phage by confocal microscopy; assay type: cell-based; details: peptide displayed on phage, compared with ORD 5 phage pools
Source text: Confocal microscopy was used to investigate the internalization and cytoplasmic localization of the selected peptides on phage. First, we used the phage pool. […] Some of these peptides had been identified from the selection against all three cell lines and some were cell-type selective. […] Representative images showing different internalization levels of NNJA peptides on phage were shown in Supplementary Fig. S6. Confirmation of internalization for select peptides was obtained using the same approach in Caco2 cells (Supplementary Figs. S7, S8).
Cells were fixed with 4% paraformaldehyde (PFA) on ice for 20 min after the washing steps. Fixed cells were washed with PBS for three times to remove any excess PFA, and followed by 1 h blocking in 3% bovine serum albumin (BSA) in Tris buffer saline (TBS) with 0.2% triton X-100, and antibodies staining in TBS with 0.2% triton X-100. Primary antibodies were incubated with cell samples overnight at 4 °C. Following PBS washes, species-specific Alexa Fluor 488, Alexa Fluor 568, and/or Alexa Fluor 647-coupled secondary antibodies were used for signal detection. Imaging data collection was conducted on an LSM800 (Zeiss) confocal microscope, using a 40× (NA 1.1 W LD C-Apochromat, Zeiss) objective. Controls treated with secondary antibody were shown negative or undetectable signal.

HEK-239 cells = assay: Double-displayed phage carrying streptavidin-HRP, cellular uptake detected with TMB; assay type: cell-based; details: peptide displayed on phage PIII, streptavidin-HRP on pIX; n = 2
Experimental: (§1) We further evaluated the ability of NNJA peptides on phage to deliver functional groups into HEK-239 and CaCo2 cells by displaying an Avi-tag peptide on the minor coat protein pIX. Post biotinylation of Avi-tag by BirA, streptavidin-HRP was added to phage, forming a phage-protein complex (Avi[bio]/CPP-SA-HRP).
(§2) A randomly picked peptide ([…]) from the naïve library was incorporated in the setting and served as one of the negative controls. The method was described previously. Cell viability was evaluated in a replicated experimental group under the same assay condition using CellTiter-Glo luminescent cell viability assay from Promega.

Caco2 cells = details: peptide displayed on phage PIII, streptavidin-HRP on pIX; n = 2
Experimental: as §1, §2

| Sequence | phage internalization in HEK cells, M13 antibody signal (HEK cells) | cellular uptake of phage-protein complex (Avi[bio]/CPP-SA-HRP), TMB signal, HEK-239 cells (HEK-239 cells) | cellular uptake of phage-protein complex (Avi[bio]/CPP-SA-HRP), TMB signal, CaCo2 cells (Caco2 cells) |
| --- | --- | --- | --- |
| GRKKRRQRRRPQ [Tat48–60, classic CPP] | lower signal intensity |  |  |
| TVSRELTPL (phage displayed) [random peptide] |  | minimum signal | minimum signal |

— PMC11167021, “Discovery of a new class of cell-penetrating peptides by novel phage display platform” (Scientific Reports, 2024)
